Test results reported in US11780830B2, “Triazolone derivatives or salts thereof and pharmaceutical compositions comprising the same” (YUHAN CORPORATION, priority 2018, dated 2023).
Structures can show the parent of a compound that is named as a salt.

What was measured:
Format in all cases: biochemical
[1] = target: T1, recombinant human MAO-B (monoamine oxidase-B) (Homo sapiens, UniProt P27338); experiment: Activity on recombinant human MAO-B, method similar to the VAP-1 assay; settings: substrate 1 mM benzylamine; read-out: Inhibitory Activity (IC50, nM) MAO-B
T1 construct: purchased Sigma-Aldrich
T1 sequence (P27338 1-520): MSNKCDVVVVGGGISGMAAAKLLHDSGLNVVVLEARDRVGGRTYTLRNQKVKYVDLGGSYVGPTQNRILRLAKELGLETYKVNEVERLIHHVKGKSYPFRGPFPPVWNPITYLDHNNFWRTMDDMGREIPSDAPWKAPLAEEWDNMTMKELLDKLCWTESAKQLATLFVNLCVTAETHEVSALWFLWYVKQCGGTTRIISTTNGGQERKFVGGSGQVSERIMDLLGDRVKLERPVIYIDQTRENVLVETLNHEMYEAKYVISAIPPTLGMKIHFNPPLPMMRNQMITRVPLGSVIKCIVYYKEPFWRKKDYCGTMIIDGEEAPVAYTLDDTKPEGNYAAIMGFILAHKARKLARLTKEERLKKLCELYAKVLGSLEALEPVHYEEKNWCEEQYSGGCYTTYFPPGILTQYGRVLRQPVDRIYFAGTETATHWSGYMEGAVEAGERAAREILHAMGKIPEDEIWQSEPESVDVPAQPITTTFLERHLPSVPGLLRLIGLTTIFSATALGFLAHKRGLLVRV
Outline: (§1)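 Enzyme in pH 7.4 phosphate buffer; 30 min, 37° C with compound (DMSO <1%); start with 200 uM Amplex Red + 1 U/mL HRP + tyramine 0.5 mM (MAO-A) or benzylamine 1 mM (MAO-B); kinetic read ex 544/em 590, 1-2 h; % rate decrease vs DMSO control → IC50, 4-parameter fit.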

[2] = target: T2, recombinant human MAO-A (monoamine oxidase-A) (Homo sapiens, UniProt P21397); experiment: Activity on recombinant human MAO-A, method similar to the VAP-1 assay; settings: substrate 0.5 mM tyramine; read-out: Inhibitory Activity (IC50, nM) MAO-A
T2 construct: purchased Sigma-Aldrich
T2 sequence (P21397 1-527): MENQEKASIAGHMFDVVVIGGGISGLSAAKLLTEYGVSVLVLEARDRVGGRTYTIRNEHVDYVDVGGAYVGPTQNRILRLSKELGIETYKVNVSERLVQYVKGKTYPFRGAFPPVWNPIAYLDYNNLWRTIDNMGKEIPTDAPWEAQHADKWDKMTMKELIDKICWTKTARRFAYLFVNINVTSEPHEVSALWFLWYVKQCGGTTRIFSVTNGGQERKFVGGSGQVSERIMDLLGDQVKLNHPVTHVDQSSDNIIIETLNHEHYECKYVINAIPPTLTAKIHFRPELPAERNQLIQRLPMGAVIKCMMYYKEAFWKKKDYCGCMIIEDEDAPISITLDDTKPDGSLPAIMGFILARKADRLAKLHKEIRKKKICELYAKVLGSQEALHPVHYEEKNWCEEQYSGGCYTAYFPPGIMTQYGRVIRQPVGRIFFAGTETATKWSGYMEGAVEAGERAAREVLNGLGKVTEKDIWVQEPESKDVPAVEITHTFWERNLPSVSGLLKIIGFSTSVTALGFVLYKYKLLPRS
Outline: as §1

[3] = target: T3, recombinant human VAP-1 (Homo sapiens, UniProt Q16853); experiment: Activity on recombinant human VAP-1, HRP-coupled Amplex Red hydrogen peroxide assay; settings: substrate 1 mM benzylamine; compound incubated with enzyme at 37° C. for 30 minutes; pH 7.4; read-out: Inhibitory Activity (IC50, nM) human VAP-1
T3 construct: purchased R&D systems
T3 sequence (Q16853 1-763): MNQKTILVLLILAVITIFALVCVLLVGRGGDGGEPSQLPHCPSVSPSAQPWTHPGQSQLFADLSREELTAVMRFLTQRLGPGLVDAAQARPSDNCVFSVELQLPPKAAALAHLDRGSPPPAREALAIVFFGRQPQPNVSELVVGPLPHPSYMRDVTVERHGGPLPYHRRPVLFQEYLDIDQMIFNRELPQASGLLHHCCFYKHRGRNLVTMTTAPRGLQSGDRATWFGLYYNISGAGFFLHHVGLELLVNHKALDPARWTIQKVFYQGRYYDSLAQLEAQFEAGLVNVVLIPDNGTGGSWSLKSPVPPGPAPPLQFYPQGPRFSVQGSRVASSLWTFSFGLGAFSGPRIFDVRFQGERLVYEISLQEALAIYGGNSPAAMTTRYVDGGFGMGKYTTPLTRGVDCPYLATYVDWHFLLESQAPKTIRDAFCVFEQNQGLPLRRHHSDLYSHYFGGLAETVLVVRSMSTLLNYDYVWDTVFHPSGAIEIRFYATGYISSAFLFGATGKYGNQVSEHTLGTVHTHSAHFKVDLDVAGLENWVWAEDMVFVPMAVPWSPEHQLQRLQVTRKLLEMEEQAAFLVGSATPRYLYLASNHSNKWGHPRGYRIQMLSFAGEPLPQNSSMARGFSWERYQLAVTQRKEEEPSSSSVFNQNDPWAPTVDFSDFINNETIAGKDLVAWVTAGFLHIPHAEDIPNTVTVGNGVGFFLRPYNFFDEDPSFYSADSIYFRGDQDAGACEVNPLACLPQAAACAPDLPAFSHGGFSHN
Outline: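 Enzyme in 50 mM sodium phosphate (pH 7.4) is exposed to test compound for 30 min at 37 °C. Benzylamine (1 mM) with HRP and Amplex Red then starts the reaction, and the fluorescence rate, relative to a DMSO-only control, gives IC50.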

[4] = target: T4, recombinant human DAO (diamine oxidase) (Homo sapiens, UniProt P19801); experiment: Activity on recombinant human DAO, method similar to the VAP-1 assay; settings: substrate 1 mM putrescine; read-out: Inhibitory Activity (IC50, nM) DAO
T4 construct: purchased R&D systems
T4 sequence (P19801 20-751): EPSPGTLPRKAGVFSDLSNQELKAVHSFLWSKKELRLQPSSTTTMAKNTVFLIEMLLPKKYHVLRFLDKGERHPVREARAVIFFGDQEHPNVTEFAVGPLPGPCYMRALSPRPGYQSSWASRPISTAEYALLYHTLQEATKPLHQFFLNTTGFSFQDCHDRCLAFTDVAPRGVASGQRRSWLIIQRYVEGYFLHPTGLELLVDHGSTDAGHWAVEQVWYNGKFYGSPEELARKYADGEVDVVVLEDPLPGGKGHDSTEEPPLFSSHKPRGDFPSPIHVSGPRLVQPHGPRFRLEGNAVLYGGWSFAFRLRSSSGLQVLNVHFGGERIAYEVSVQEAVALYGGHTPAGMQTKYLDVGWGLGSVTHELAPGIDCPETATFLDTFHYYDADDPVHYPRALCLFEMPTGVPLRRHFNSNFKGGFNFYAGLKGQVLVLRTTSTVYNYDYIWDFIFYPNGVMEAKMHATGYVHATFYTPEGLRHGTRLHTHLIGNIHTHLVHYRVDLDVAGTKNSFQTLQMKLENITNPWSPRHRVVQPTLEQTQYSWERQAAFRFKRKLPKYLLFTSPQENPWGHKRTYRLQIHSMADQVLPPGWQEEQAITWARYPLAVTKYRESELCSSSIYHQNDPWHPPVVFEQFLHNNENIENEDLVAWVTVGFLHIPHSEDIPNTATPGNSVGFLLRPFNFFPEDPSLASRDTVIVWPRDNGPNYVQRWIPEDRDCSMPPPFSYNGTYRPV
Outline: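 Inhibition of recombinant human diamine oxidase (DAO, R&D systems) was assessed by the same approach as the VAP-1 assay, using 1 mM putrescine as substrate. Hydrogen peroxide formed was detected through an HRP-coupled Amplex Red reaction yielding fluorescent resorufin, read at 544 nm excitation and 590 nm emission. IC50 values came from four-parameter logistic fitting in GraphPad Prism.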

IC50 [1]	IC50 [2]	IC50 [3]	IC50 [4]	SMILES
370 nM	32000 nM	0.9 nM	220 nM	NC/C(=C\F)Cn1ncn(Cc2ccc(-c3ccc4c(c3)CCCN4)s2)c1=O [Example 110, 2-[(2E)-2-(aminomethyl)-3-fluoroprop-2-en-1-yl]-4-[5-(1,2,3,4-tetrahydroquinolin-6-yl)thiophen-2-yl]methyl-2,4-dihydro-3H-1,2,4-triazol-3-one hydrochloride]
1600 nM	> 100000 nM	0.4 nM	1000 nM	NC/C(=C\F)Cn1ncn(Cc2ccc(-c3ccc4c(c3)CNC4=O)s2)c1=O [Example 68, 5-[5-(1-[(2E)-2-(aminomethyl)-3-fluoroprop-2-en-1-yl]-5-oxo-1,5-dihydro-4H-1,2,4-triazol-4-ylmethyl)thiophen-2-yl]-2,3-dihydro-1H-isoindol-1-one hydrochloride]
247 nM	39600 nM	0.89 nM	67 nM	NC/C(=C\F)Cn1ncn(Cc2ccc(-c3ccc(-c4noc(C5CC5)n4)cc3)s2)c1=O [Example 35, 2-[(2E)-2-(aminomethyl)-3-fluoroprop-2-en-1-yl]-4-(5-[4-(5-cyclopropyl-1,2,4-oxadiazol-3-yl)phenyl]thiophen-2-ylmethyl)-2,4-dihydro-3H-1,2,4-triazol-3-one hydrochloride]
116 nM	> 100000 nM	2 nM	660 nM	NC/C(=C\F)Cn1ncn(Cc2ccc(-c3cccc(-c4ncon4)c3)s2)c1=O [Example 34, 2-[(2E)-2-(aminomethyl)-3-fluoroprop-2-en-1-yl]-4-(5-[3-(1,2,4-oxadiazol-3-yl)phenyl]thiophen-2-ylmethyl)-2,4-dihydro-3H-1,2,4-triazol-3-one]
810 nM	> 100000 nM	0.1 nM	140 nM	NC/C(=C\F)Cn1ncn(Cc2ccc(-c3ccc4c(c3)NC(=O)OC4)s2)c1=O [Example 100, 7-[5-(1-[(2E)-2-(aminomethyl)-3-fluoroprop-2-en-1-yl]-5-oxo-1,5-dihydro-4H-1,2,4-triazol-4-ylmethyl)thiophen-2-yl]-1,4-dihydro-2H-3,1-benzoxazin-2-one hydrochloride]

More lines, now with the values behind:

SMILES	IC50 [1]	IC50 [2]	IC50 [3]	IC50 [4]
CN(C)c1ccc(-c2ccc3sc(Cn4cnn(C/C(=C/F)CN)c4=O)cc3c2)cn1 [Example 212, 2-[(2E)-2-(aminomethyl)-3-fluoroprop-2-en-1-yl]-4-({5-[6-(dimethylamino)pyridin-3-yl]-1-benzothiophen-2-yl}methyl)-2,4-dihydro-3H-1,2,4-triazol-3-one]	4900 nM	37000 nM	2.3 nM	77000 nM
CN(C)c1ncc(-c2ccc(Cn3cnn(C/C(=C/F)CN)c3=O)s2)cc1F [Example 173, 2-[(2E)-2-(aminomethyl)-3-fluoroprop-2-en-1-yl]-4-({5-[6-(dimethylamino)-5-fluoropyridin-3-yl]thiophen-2-yl}methyl)-2,4-dihydro-3H-1,2,4-triazol-3-one]	2000 nM	> 100000 nM	2.1 nM	1200 nM
Cc1c(-c2ccc(Cn3cnn(C/C(=C/F)CN)c3=O)s2)ccc2c1NCCO2 [Example 108, 2-[(E)-2-(aminomethyl)-3-fluoro-allyl]-4-[[5-(5-methyl-3,4-dihydro-2H-1,4-benzoxazin-6-yl)-2-thienyl]methyl]-1,2,4-triazol-3-one]	3200 nM	21000 nM	0.8 nM	250 nM
NC/C(=C\F)Cn1ncn(Cc2cc3cc(-c4ccc5c(c4)OCO5)ccc3s2)c1=O [Example 207, 2-[(2E)-2-(aminomethyl)-3-fluoroprop-2-en-1-yl]-4-{[5-(1,3-benzodioxol-5-yl)-1-benzothiophen-2-yl]methyl}-2,4-dihydro-3H-1,2,4-triazol-3-one]	64 nM	> 100000 nM	3.8 nM	2800 nM
CN(C)c1ccc(/C=C/c2ccc(Cn3cnn(C/C(=C/F)CN)c3=O)s2)cc1 [Example 120, 2-[(E)-2-(aminomethyl)-3-fluoro-allyl]-4-[[5-[2-[4-(dimethylamino)phenyl]vinyl]-2-thienyl]methyl]-1,2,4-triazol-3-one]	340 nM	16000 nM	6.2 nM	1100 nM
COc1ccc(-c2ccc(Cn3cnn(C/C(=C/F)CN)c3=O)s2)cc1OC [Example 16, 2-[(2E)-2-(aminomethyl)-3-fluoroprop-2-en-1-yl]-4-[5-(3,4-dimethoxyphenyl)thiophen-2-yl]methyl-2,4-dihydro-3H-1,2,4-triazol-3-one hydrochloride]	300 nM	> 100000 nM	1.2 nM	2800 nM
Cn1c(-c2ccc(Cn3cnn(C/C(=C/F)CN)c3=O)s2)cnc1Cl [Example 154, 2-[(2E)-2-(aminomethyl)-3-fluoroprop-2-en-1-yl]-4-{[5-(2-chloro-1-methyl-1H-imidazol-5-yl)thiophen-2-yl]methyl}-2,4-dihydro-3H-1,2,4-triazol-3-one]	1400 nM	> 100000 nM	4.4 nM	690 nM
